Assay results from ChEMBL document CHEMBL2346650, “Cytotoxic scalarane sesterterpenes from a Korean marine sponge Psammocinia sp” (Bioorg Med Chem Lett, 2013).

Experiments:
[1] = Cytotoxicity against human MiaPaCa cells after 72 hrs by MTT assay; format: functional, cell-based; details: MIA PaCa-2, 72 h
PANC-1 = assay: Cytotoxicity against human PANC1 cells after 72 hrs by MTT assay; format: functional, cell-based; details: PANC-1, 72 h
CV-1 = assay: Cytotoxicity against african green monkey CV1 cells after 72 hrs by MTT assay; format: cell-based; details: Chlorocebus aethiops, CV-1, 72 h
ACHN = assay: Cytotoxicity against human ACHN cells after 72 hrs by MTT assay; format: functional, cell-based
A498 = assay: Cytotoxicity against human A498 cells after 72 hrs by MTT assay; format: functional, cell-based; details: A498, 72 h

Compound | IC50 [1] | IC50 (PANC-1) | IC50 (CV-1) | IC50 (ACHN) | IC50 (A498)
CC(=O)OC[C@]12CCCC(C)(C)[C@@H]1CC[C@]1(C)[C@@H]2C[C@@H](OC(C)=O)[C@]2(C)c3cocc3CC[C@@H]12 | 31.1 µM | 48 µM | > 50 µM | > 50 µM | > 50 µM
CC(=O)O[C@@H]1OC=C2[C@@H](OC(C)=O)C[C@@H]3[C@](C)(CC[C@H]4[C@@]3(C)CC[C@H]3C(C)(C)CCC[C@@]34CO)[C@H]21 | 0.7 µM | 0.4 µM | 0.8 µM | 0.4 µM | 0.7 µM
CC(=O)OC[C@]12CCCC(C)(C)[C@@H]1CC[C@@]1(C)[C@@H]3CC=C4C(=O)O[C@@H](O)[C@@H]4[C@@]3(C)CC[C@@H]12 | 1.2 µM | 1.3 µM | 2.1 µM | 1.3 µM | 1.3 µM
CC(=O)OC[C@]12CCCC(C)(C)[C@@H]1CC[C@@]1(C)[C@@H]3C[C@H](OC(C)=O)C4=CO[C@@H](OC(C)=O)[C@@H]4[C@@]3(C)CC[C@@H]12 | 2.8 µM | 1.6 µM | 3 µM | 5.8 µM | 5.7 µM
CC1(C)CCC[C@@]2(CO)[C@H]1CC[C@]1(C)[C@@H]2CC[C@]2(C)C3=C(C(=O)O[C@H]3O)C(O)C[C@@H]12 (mixture of isomers) | > 50 µM | > 50 µM | > 50 µM | > 50 µM | 40.7 µM
CC1(C)CCC[C@@]2(CO)[C@H]1CC[C@@]1(C)[C@@H]3CC=C(C=O)[C@H](C=O)[C@@]3(C)CC[C@@H]12 [12-DEACETOXY-23-HYDROXYSCALARADIAL] | 31.1 µM | 34.3 µM | > 50 µM | > 50 µM | > 50 µM
CC1(C)CCC[C@]2(C)[C@H]3CC[C@@]4(C)[C@@H](CC=C(C=O)[C@@H]4C=O)[C@]3(C)CC[C@@H]12 [12-DEACETOXYSCALARADIAL] | 45.9 µM | 38.8 µM | 45 µM | > 50 µM | > 50 µM
Nc1ccn([C@@H]2O[C@H](CO)[C@@H](O)C2(F)F)c(=O)n1 [GEMCITABINE] | 17.1 µM | > 50 µM | 21.9 µM | – | –
CCN(CC)CCNC(=O)c1c(C)[nH]c(/C=C2\C(=O)Nc3ccc(F)cc32)c1C [SUNITINIB] | – | – | – | 5.7 µM | 4.3 µM
CO[C@H]1C[C@@H]2CC[C@@H](C)[C@@](O)(O2)C(=O)C(=O)N2CCCC[C@H]2C(=O)O[C@H]([C@H](C)C[C@@H]2CC[C@@H](OC(=O)C(C)(CO)CO)[C@H](OC)C2)CC(=O)[C@H](C)/C=C(\C)[C@@H](O)[C@@H](OC)C(=O)[C@H](C)C[C@H](C)/C=C/C=C/C=C/1C [TEMSIROLIMUS] | – | – | – | – | 34.3 µM
